According to ChEMBL document CHEMBL6109157, “Tertiary Alcohol: Reaping the Benefits but Minimizing the Drawbacks of Hydroxy Groups in Drug Discovery” (J Med Chem, 2025):

How the values were obtained:
[1] = Binding affinity to [125I] radiolabelled Angiotensin-2 receptor in bovine adrenal cortex membrane; type: cell membranes, Bos taurus
[2] = In vivo inhibition of Angiotensin II-induced pressor response in Wistar rat model at 0.3 mg/kg, po and measured for 6 hrs; type: functional
Mus musculus [3] = assay: Dose normalized in AUC mouse at 50 mg/kg by LC-MS/MS analysis; type: ADME, organism-based; conditions: in vivo
[4] = AUC in mouse at 50 mg/kg, po measured for 40 mins by LC-MS/MS analysis; type: ADME, organism-based; conditions: in vivo
[5] = molecular target: Dual specificity mitogen-activated protein kinase kinase 1 (Homo sapiens, UniProt Q02750); assay: Inhibition of MEK1 (unknown origin) phosphorylation
Mus musculus [6] = assay: Dose normalized in AUC mouse at 25 mg/kg by LC-MS/MS analysis; type: ADME, organism-based; conditions: in vivo
[7] = AUC in po dosed mouse at 25 mg/kg by LC-MS/MS analysis; type: ADME, organism-based; conditions: in vivo

Chain of Dual specificity mitogen-activated protein kinase kinase 1 (Q02750 whole entry): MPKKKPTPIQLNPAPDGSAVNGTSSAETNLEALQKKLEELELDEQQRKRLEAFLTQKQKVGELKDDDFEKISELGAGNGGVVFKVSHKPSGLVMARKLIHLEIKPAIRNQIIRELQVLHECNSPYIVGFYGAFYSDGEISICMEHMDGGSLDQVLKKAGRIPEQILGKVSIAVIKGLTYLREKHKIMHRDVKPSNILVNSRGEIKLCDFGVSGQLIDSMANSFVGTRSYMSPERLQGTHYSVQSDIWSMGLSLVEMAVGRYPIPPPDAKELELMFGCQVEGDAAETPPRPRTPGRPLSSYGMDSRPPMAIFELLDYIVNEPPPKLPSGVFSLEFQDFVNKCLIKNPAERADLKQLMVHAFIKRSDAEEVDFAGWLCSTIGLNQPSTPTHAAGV

SMILES	IC50 [1] [nM]	inhibition in vivo at 0.3 mg/kg [2] [%]	also measured
CCCc1nc(CC)c(C(=O)O)n1Cc1ccc(-c2ccccc2-c2nn[nH]n2)cc1	12		
CCCc1nc(C(C)C)c(C(=O)O)n1Cc1ccc(-c2ccccc2-c2nn[nH]n2)cc1	46		
CCCc1nc(CO)c(C(=O)O)n1Cc1ccc(-c2ccccc2-c2nn[nH]n2)cc1	6.9	65	
Nc1nccn2c(C3CCC3)nc(-c3ccc4ccc(-c5ccccc5)nc4c3)c12			AUC/dose (Mus musculus [3]): 103.4 ng·h/mL/mg/kg; AUC [4]: 5170 ng·h/mL
CCCc1nc(C)c(C(=O)O)n1Cc1ccc(-c2ccccc2-c2nn[nH]n2)cc1	11		
CCCc1nc(C(C)O)c(C(=O)O)n1Cc1ccc(-c2ccccc2-c2nn[nH]n2)cc1 (centres undefined)	4.9	69	
O=C(c1ccc(F)c(F)c1Nc1ccc(I)cc1F)N1CC(O)([C@@H]2CCCCN2)C1 [COBIMETINIB]			IC50 [5]: 0.2 nM
C[C@]1(O)C[C@@H](c2nc(-c3ccc4ccc(-c5ccccc5)nc4c3)c3c(N)nccn32)C1 [LINSITINIB]			AUC/dose (Mus musculus [6]): 1069.6 ng·h/mL/mg/kg; AUC [7]: 26700 ng·h/mL
CCCc1nc(C(C)(C)O)c(C(=O)O)n1Cc1ccc(-c2ccccc2-c2nnn[nH]2)cc1 [OLMESARTAN]	8.1	78	
